# Assay results taken from US12653840B2, “Methods for production of platelets from pluripotent stem cells and compositions thereof” (Astellas Institute for Regenerative Medicine, priority 2012, dated 2026).
# “Also recorded” adds a separate entry of the source.
# Legend:
# [1] = tested on: GATA-1; experiment: Relative quantitative mRNA analysis on day 6+4; assay type: cell-based, human; details: 0.1 and 0.25 microM
# Source text: (§1) FIG. 32. Relative quantitative analysis of mRNA of c-myc and GATA-1 on day 6+4 as a function of increasing dose of iBET-151. iBET concentrations: 0 (left bar), 0.1 microM (middle bar), 0.25 microM (right bar) for each triplet.
# [2] = tested on: c-myc; experiment: Relative quantitative mRNA analysis on day 6+4; assay type: cell-based, human; details: 0.1 and 0.25 microM
# Source text: as §1
# [3] = tested on: cells undergoing in vitro megakaryopoiesis; experiment: iBET-151 in PVE-HE to MLP differentiation culture, harvest at day 6+4; assay type: cell-based, human
# Method: Megakaryocyte progenitor (MLP) numbers harvested at day 6+4 (i.e., day 10 of differentiation) as a function of increasing dose of iBET-151 (in μM). iBET is added to the culture at the 6+3 day time frame, and MLPs are exposed to iBET for a period of about 24 hours prior to their harvest. iBET concentrations: 0 (left bar), 0.1 microM (middle bar), 0.25 microM (right bar). […] CD14+ cell purity in cell population harvested at day 6+4 as a function of increasing dose of iBET-151. iBET concentrations: 0 (left bar), 0.1 microM (middle bar), 0.25 microM (right bar).
# [4] = tested on: human and murine MLL-fusion leukemic cell lines; details: through induction of early cell cycle arrest and apoptosis; cited from earlier work
# [5] = tested on: iPS derived megakaryocytes; experiment: Platelet formation in static culture with MMP inhibitors; assay type: cell-based, human
# Source text: FIG. 27. Platelet purity as a result of static culture in the presence of MMP8 specific inhibitor MMP8-I (second bar), pan-MMP inhibitor GM6001 (third bar), or the combination of MMP8-I and GM6001 (fourth bar). The MMP8-I is (3R)-(+)-[2-(4-Methoxybenzenesulfonyl)-1,2,3,4-tetrahydroisoquinoline-3-hydroxamate], and it is commercially available from Millipore. The first bar is the control.
# FIG. 28. Platelets numbers as a result of static culture in the presence of MMP8 specific inhibitor MMP8-I (second bar), pan MMP inhibitor GM6001 (third bar), or the combination of MMP8-I and GM6001 (fourth bar). The first bar is the control.
# The peak of platelet production is determined by measuring platelet content in the culture, for example on a daily basis for several days. It is typically 4-7 days after the beginning of the MLP differentiation culture period, although it may be longer or it may be shifted.
# [6] = tested on: MKs derived from HA-iPS; experiment: Platelet generation from MKs under constant shear force in a microfluidic device; assay type: cell-based, human
# Method: Matured MKs, derived from HA-iPS and MA09 hES lines, were used. Equal numbers of MKs suspended in MK-specific medium were loaded into a microfluidic device in the presence or absence of 20 μM MMP inhibitor GM6001. Constant shear force was applied to the MKs throughout the culture period. MK-medium downstream of MKs was collected at 30 minute intervals for a period of 6 hours. Platelet number and purity (i.e., percentage of total cells that are CD41a^+CD42b^+) in the collected media were measured using flow cytometer.
# FIGS. 22-24 provide the results of platelet generation from MKs derived from HA-iPS. The platelets were generated under a constant shear force defined by a flow rate of […] μl/min. […] Purity is expressed at the percentage of total harvested cells that are CD41a+CD42b+.
# [7] = tested on: CD42b; details: reported; cited from earlier work
# [8] = tested on: developing mouse platelet thrombus; experiment: In vivo thrombus formation after laser-induced cremaster arteriolar wall injury, intravital microscopy; design: species or system macrophage-depleted NOD/SCID mice; details: platelets pretreated with ReoPro
# Method: Third, hiPSC-PLTs were analyzed for functionality using an in vivo assay system measuring thrombus formation in macrophage-depleted NOD/SCID mice. Briefly, intravital microscopy of cremaster muscle arterioles was performed as previously described (Cell Research 2011 21:530-45). Macrophage-depleted NOD/SCID mice were anesthetized by intraperitoneal injection of ketamine (125 mg/kg) and xylazine (25 mg/kg). A tracheal tube was inserted and the mouse was placed on a thermo-controlled blanket. After incision of the scrotum, the cremaster muscle was exteriorized onto an intravital microscopy tray. The muscle preparation was superfused with thermo-controlled (37° C.) and aerated (95% N2, 5% CO2) bicarbonate-buffered saline throughout the experiment. The cremaster muscle arteriolar wall was injured by micropoint laser ablation using a Micropoint Laser System (Photonics Instruments). […] Fluorescence and brightfield images were recorded using an Olympus BX61W microscope with a 60 x/1.0 NA water immersion objective and a high speed camera (Hamamatsu C9300) through an intensifier (Video Scope International). Data were collected for 5 min following vessel wall injury and analyzed using Slidebook v5.0 (Intelligent Imaging Innovations).
molecule,measurement,setting,value
COc1cc2c(cc1-c1c(C)noc1C)ncc1[nH]c(=O)n([C@H](C)c3ccccn3)c12 [i-BET-151],GATA1 gene expression (mRNA),[1],up-regulated
same,c myc gene expression (mRNA),[2],dose:-dependent inhibition
same,number of CD14+ myeloid cells,"[3]; 0.1 and 0.25 microM, day 6+4",dose-dependent decrease
same,apoptosis,[3]; high dose,triggers massive apoptosis
same,numbers of MK progenitors,"[3]; lower doses in the micromolar (or submicromolar) range, 0.1 and 0.25 microM, about 24 hours",increased numbers
same,efficacy against MLL-fusion leukemic cell lines,[4],profound efficacy
"COc1ccc(S(=O)(=O)N2Cc3ccccc3C[C@@H]2C(=O)NO)cc1 [MMP8 specific inhibitor, (3R)-(+)-[2-(4-Methoxybenzenesulfonyl)-1,2,3,4-tetrahydroisoquinoline-3-hydroxamate]]",purity of iPS-derived platelets (CD41a+CD42b+),"[5]; added at peak of platelet production of MKs, static culture, control 43.7%",65.5%
same,potency in protecting platelet function,[5]; comparative study of several specific MMP inhibitors,more potency than GM6001
same,"CD41a+CD42b+ platelets produced, compared to GM6001",[5]; static culture,Significantly more
same,"purity, more than obtained from GM6001-treated cultures",[5]; static culture,approximately 10%
dextran,platelet formation,"[6]; 8% dextran added to increase viscosity of culture medium, with GM6001, shear force",negative impact
CNC(=O)[C@H](Cc1c[nH]c2ccccc12)NC(=O)[C@@H](CC(=O)NO)CC(C)C [GM6001],platelet purity (percentage of total harvested cells that are CD41a+CD42b+),"[6]; 20 μM, added at beginning of culture, constant shear force, vs DMSO",significantly improved
same,platelet yield / platelet numbers,"[6]; 20 μM, constant shear force, vs DMSO",significantly improved; also recorded: significantly more platelets
same,CD42b shedding from platelets,[7],inhibit CD42b shedding
"ReoPro: Fab fragment of a human-murine chimeric monoclonal antibody that binds specifically to αIIbβIII and inhibits platelet function (antibody, chains of the INN, looked up, V domains shown, Fab) VH: EVQLQQSGTVLARPGASVKMSCEASGYTFTNYWMHWVKQRPGQGLEWIGAIYPGNSDTSYIQKFKGKAKLTAVTSTTSVYMELSSLTNEDSAVYYCTLYDGYYVFAYWGQGTLVTVSA VL: EIVLTQSPVTLSVTPGDSVSLSCRASRDISNNLHWFQQTSHESPRLLIKYASQSMSGIPSRFSGSGSGTDFTLSINSVETEDFGMYFCQQTNSWPYTFGGGTKLEIK",number of platelets bound to / incorporating in the thrombus after ReoPro pretreatment,[8],inhibited; also recorded: markedly reduced
